In patent US20140193383A1, “USE OF LACTOBACILLUS KEFIRANOFACIENS AS A PROBIOTIC AND A SYNBIOTIC” (Technologies Biolactis Inc., priority 2005, published 2014):

What was measured:
[1] = tested on: diet-induced hyperlipidemia and weight gain; assay: Model of hypertriglyceridemia and obesity (fructose 10% in drinking water); type: in vivo, Wistar rats
Experimental: The whey fermented with L. kefiranofaciens […] was tested for its capacity to regulate weight gain and blood lipid levels in a diet-induced rat model of hyperlipidemia. This protocol allows a comparison to niacin (vitB3) in regulating diet-induced hyperlipidemia in rats. […] The hypo-lipidemic effects of the whey fermented with L. kefiranofaciens […] during the fructose treatment period were evaluated. Blood samples are collected before the start of fructose treatment, and once a week for 4 weeks during the induction of hyperlipidemia. Serum levels of triglycerides were measured.

[2] = tested on: poloxamer 407 induced hyperlipidemia; assay: Model of hyperlipidemia, poloxamer 407 (Example 8a); type: in vivo, Wistar rats
Experimental: (§1) The whey fermented with L. kefiranofaciens R2C2 was tested for their capacity to regulate blood lipid levels in a rat model of hyperlipidemia. […] Wistar rats injected i.p. with poloxamer 407 rapidly develop severe but transient hyperlipidemia. […] The hypo-lipidemic effect of L. kefiranofaciens strains is evaluated in groups of rats pre-treated orally for 7 days before injection of poloxamer. Blood lipids were measured before injection and at 24 and 72 hours following induction of hyperlipidemia. Plasma levels of triglycerides, cholesterol, HDL, LDL and glucose were evaluated.
Group 1: 4 rats, gavage saline Group 2: 4 rats, gavage niacin (100 mg/kg) Group 3: 4 rats, gavage whey fermented with L. kefiranofaciens R2C2 (1 ml per gavage)

[3] = tested on: poloxamer 407 induced hyperlipidemia; assay: Anti-triglyceridemia potential, poloxamer 407 rats (Example 6); type: in vivo, female Wistar rats
Experimental: For the experiment, female Wistar rats, 7 weeks old, weighing 125-150 g. were purchased from Charles River Canada. Rats were randomized into 4 different groups, each composed of at least 6 animals. […] They were housed under specific pathogen-free conditions and maintained in a […] light/dark cycle. All animals consumed standard diet and received water ad libitum. MPM was in a lyophilized form and prepared daily by adding 80% of water and mixed to create back a yoghurt-like product. The bacterial strain Lactobacillus […] was routinely cultured in MRS broth (BD Biosciences, Mississauga, ON, Canada) at 37° C. for a period of 24 h. Bacteria were then pelleted by centrifugation at 4000 rpm for 8 minutes and re-suspended at a concentration of 10^9 cells/mL in sterile PBS (Invitrogen). Niacin was dissolved in water in order for the rats to receive a dose of 100 mg of treatment per kg. […] The poloxamer 407 solution for intraperitoneal (i.p.) injection was prepared by combining the agent with sterile water and refrigerating overnight to facilitate dissolution of the polymer by the cold method of incorporation. […] Approximately 1 mL of blood was collected from the jugular vein in 3 mL syringes and immediately transferred in lithium-heparinized plastic tubes (Sarstedt, Montreal, QC, Canada). Tubes were lightly shaken for 10 seconds, and then centrifuged to allow separation of the plasma. Plasma samples were collected in clean 1.5 mL eppendorf and immediately frozen at -80° C. until the time of analysis. For blood collection, each animal was anesthetized using isoflurane (AErrane, Baxter Corporation, Deerfield, Ill., USA). […] Animals were sacrificed after the last blood collection by the CO2 asphyxia method. […] Samples from all experimental groups were analyzed for total cholesterol and triglycerides. All analysis were performed in an independent laboratory (Laboratoire medical Biron, 4105-[…] Blvd, Brossard, Québec, Canada, J4Y 2P4), ISO 9002 certified, offering a reliable plasma lipids quantification service.

[4] = tested on: visceral fat in Spontaneous Hypertensive Rat; assay: Weight and fat management, SHR model (visceral fat); type: in vivo, SHR rats; details: once a day for 56 days, saline 100
Experimental: The whey fermented with L. kefiranofaciens R2C2 was tested for its capacity to regulate fat distribution as well as weight gain in the Spontaneous Hypertensive Rat model and in ovariectomized rats. The SHR model was used as previously described but used to monitor the levels of visceral fat accumulating in the belly following. The animals were fed with 1 ml of whey fermented with L. kefiranofaciens R2C2 (20% solid) once a day for 56 days (P.O. q1×56)
Group 1: 12 rats, gavage saline Group 2: 12 rats, gavage niacine (100 mg/kg) Group 3: 12 rats, gavage whey fermented with L. kefiranofaciens R2C2 (1 ml per gavage)

[5] = tested on: poloxamer 407 induced hyperlipidemia; assay: Poloxamer 407 rat model of hyperlipidemia (strains); type: in vivo, Wistar rats
Experimental: as §1, with “different bacterial strains were” for “whey fermented with L. kefiranofaciens R2C2 was”, “triglycerides,” for “triglycerides, cholesterol, HDL, LDL”, “cholesterol (LDL)” for “glucose”
Group 1: 4 rats, gavage saline Group 2: 4 rats, gavage niacin (100 mg/kg) Group 3: 4 rats, gavage R2C2 (1×10^8 cfu/ml) Group 4: 4 rats, gavage INIX (1×10^8 cfu/ml) Group 5: 4 rats, gavage BioSP (1×10^8 cfu/ml) Group 6: 4 rats, gavage K2 (1×10^8 cfu/ml)

[6] = tested on: systolic blood pressure of SHR rats; assay: Anti-hypertensive potential in SHR rats (tail-cuff SBP); type: in vivo, SHR female rats
Experimental: Anti-hypertensive potential of whey fermented with […] (MPM) was evaluated by using SHR female rats (6 weeks old). 12 rats were randomized according to their weight in each treatment group. They were housed under specific pathogen-free conditions and maintained in a 12 hour-light/dark cycle. All animals consumed standard diet and received water ad libitum. Groups were forced-fed daily either 1 mL of water (placebo group), MPM (5 mL/kg) or Enalapril-malate (10 mg/kg), because of its well-known hypotensive effects. Systolic blood pressure (SBP) was measured weekly by the tail-cuff method with the automated RTBP2000 Tail Blood Pressure system (Kent Scientific, Torrington, Conn., USA). Data collections were made weekly and an average of 3 measurements was taken as initial mean SBP. Data was acquired and analysed with Biopac Student Lab Pro® software version 3.6.1 (Biopac System, Goleta, Calif., USA). […] A steady decrease of the SBP was observed every week with a maximum change of at least 25% at week 4 for the animals forced-fed with MPM.

[7] = tested on: DSS-induced intestinal inflammation; assay: Effect of live, pasteurized or irradiated bacteria on DSS intestinal inflammation; type: in vivo, C57BL/6 mice
Experimental: C57BL/6 mice were treated by gavage (p.o.) with 10^8 cfu/ml of different L. kefiranofaciens strains once per day for the duration of the experiment. Animals received the strains R2C2 or BioSP as live, pasteurized or irradiated bacteria. Intestinal inflammation was induced by the addition of DSS (2.5%) to the drinking water for 8 days and then replaced with fresh water for 8 days to evaluate the rapidity of recovery process from inflammation for the different treatment groups. The level and progression of inflammation was evaluated through measurements of weight variation and combined scores of diarrhea and occult blood. Colon length and myeloperoxidase (MPO) activity in the colon were also evaluated at the end of the experiment.

[8] = tested on: oxazolone-induced atopic contact dermatitis; assay: Atopic contact dermatitis, therapeutic protocol (MPM); type: in vivo, CD-1 mice; details: Treatment of atopic contact dermatitis (day 17); Controls 0.55
Description: (§2) A murine model of atopic contact dermatitis induced with oxazolone in mice was used to determine the anti-inflammatory effect of the whey fermented with Lactobacillus kefiranofaciens […]. This model of inflammation has proven to be a sensitive and useful tool to determine efficacy and potency of several anti-inflammatory and immunosuppressive drugs used in dermatological disorders like psoriasis for example. Drugs like glucocorticoids are commonly used to relieve skin and joint inflammation. Whey fermented with […] administered orally either in a prophylactic (Table 24) or therapeutic fashion (Table 23) reduced the inflammation as shown with a reduction of around 30% of ear and thickness in both cases. […] The ear thickness of the mice was measured every day. The prophylactic anti-inflammatory potential of MPM (patent PCT/CA2002/01988) was evaluated firstly by the administration of MPM, 7 days prior to sensitization. […] Dermatitis was induced as described previously and ear thickness was measured every day. The therapeutic anti-inflammatory potential of MPM was evaluated by the administration of MPM only after the first challenge. […] The mouse atopic contact dermatitis was done as described previously and ear thickness was measured every day. The mice's weight was measured twice a week.

[9] = tested on: oxazolone-induced atopic contact dermatitis; assay: Atopic contact dermatitis, therapeutic protocol (R2C2); type: in vivo, mice
Description: A murine model of atopic contact dermatitis induced with oxazolone in mice was used to determine the anti-inflammatory effect of the whey fermented with Lactobacillus kefiranofaciens […]. This model of inflammation has proven to be a sensitive and useful tool to determine efficacy and potency of several anti-inflammatory and immunosuppressive drugs used in dermatological disorders like psoriasis for example. Drugs like glucocorticoids are commonly used to relieve skin and joint inflammation. Whey fermented with […] administered orally either in a prophylactic (Table 24) or therapeutic fashion (Table 23) reduced the inflammation as shown with a reduction of around 30% of ear and thickness in both cases. In more details, the murine model of atopic contact dermatitis was based on those firstly described by Garrigue et al. (Contact Dermatitis., 30(4):[…], 1994) and modified as follows: the CD-1 mice's abdomen were removed of hair and the sensitization phase was done with the application of 100 microliters of oxazolone 5% in acetone on the abdomen (Sigma-Aldrich, Oakville, On). After 4 days, the elicitation phase (first challenge) was done with application of 50 microliters of oxazolone 5% in acetone on the right ear (25 microliters each side of the ear). The second challenge was done 7 days after the first challenge with the same procedure. The ear thickness of the mice was measured every day. The therapeutic anti-inflammatory potential of […] was evaluated in an animal model of atopic contact dermatitis by feeding the bacterial suspension after the first challenge. The protective effect of […] was compared to that of hydrocortisone, because of its well-known anti-inflammatory effects on dermatitis.

[10] = tested on: oxazolone-induced atopic contact dermatitis; assay: Atopic contact dermatitis, prophylactic protocol (MPM); type: in vivo, CD-1 mice; details: Protection against atopic contact dermatitis (day 9); Controls 0.45
Description: as §2

[11] = plasma, before poloxamer, saline 1.55

O=C(O)c1cccnc1 [Niacin, niacin]
Levels of triglyceride, % relative to saline on day 0 ([1]; Day 0, saline 100): 100% | Levels of triglyceride, % over saline group ([1]; Day 7 of fructose, saline 260): 150% | Levels of triglyceride, % over saline group ([1]; Day 21 of fructose, saline 270): 160% | Triglycerides (mmol/L) after 7 days of treatment [2, 11]: 0.97 mmol/L | Triglycerides (mmol/L) 72 h post-induction of hyperlipidemia ([2]; plasma, saline 97.72): 69.96 mmol/L | Plasma triglycerides after pre-treatment of 7 days ([2]; rat, in vivo): plasma triglycerides were reduced | CH levels (72 hours post induction of hyperlipidemia) (%) ([3]; cholesterol, Controls 100): 33% | Triglyceride levels (7-day treatment) ([3]; plasma, before poloxamer 407, Controls 1.83): 1.00 mmol/L | Triglyceride levels (72 hours post induction of hyperlipidemia) ([3]; plasma, Controls 95.42): 66.96 mmol/L | % of animals with visceral fat [4]: 70% | Plasma triglycerides after pre-treatment of 7 days ([5]; before poloxamer): plasma triglycerides were reduced | Triglycerides (mmol/L) after 7 days of treatment [5, 11]: 0.97 mmol/L | Triglycerides (mmol/L) 72 h post-induction of hyperlipidemia ([5]; plasma, saline 95.42): 69.96 mmol/L | Plasma triglycerides 72 hours after induction of hyperlipidemia ([5]; rat, in vivo): most important reduction

CCOC(=O)[C@H](CCc1ccccc1)N[C@@H](C)C(=O)N1CCC[C@H]1C(=O)O [Enalapril, Enalapril-malate]
Systolic blood pressure (mm Hg) ([6]; Week 0, Controls 185): 184 mm Hg | Systolic blood pressure (mm Hg) ([6]; Week 1, Controls 181): 165 mm Hg | Systolic blood pressure (mm Hg) ([6]; Week 2, Controls 184): 156 mm Hg | Systolic blood pressure (mm Hg) ([6]; Week 3, Controls 183): 154 mm Hg | Systolic blood pressure (mm Hg) ([6]; Week 4, Controls 187): 154 mm Hg

Nc1ccc(O)c(C(=O)O)c1 [5-ASA]
Weight loss (%) associated with 8 days of DSS exposure ([7]; Day 5, DSS+saline −1.83): −3.21% | Combined occult blood and diarrhea scores (scale of 8) ([7]; Day 5 of DSS, DSS+saline 2.25): 1.75 | Weight loss (%) associated with 8 days of DSS exposure ([7]; Day 6, DSS+saline −5.23): −3.64% | Combined occult blood and diarrhea scores (scale of 8) ([7]; Day 6 of DSS, DSS+saline 4.50): 3.75 | Weight loss (%) associated with 8 days of DSS exposure ([7]; Day 7, DSS+saline −8.79): −5.90% | Combined occult blood and diarrhea scores (scale of 8) ([7]; Day 7 of DSS, DSS+saline 6.50): 4.25 | Weight loss (%) associated with 8 days of DSS exposure ([7]; Day 8, DSS+saline −13.5): −8.07% | Combined occult blood and diarrhea scores (scale of 8) ([7]; Day 8 of DSS, DSS+saline 6.50): 5.50 | MPO activity (U/g of tissue) ([7]; colon, post-mortem, 8 days DSS and 8 days of recovery, no DSS 0.056, DSS+saline 0.226): 0.043 U/g of tissue | Protective effect on DSS inflammation ([7]; live, pasteurized or irradiated bacteria, 5-ASA comparator): comparable protective effects

C[C@]12CCC(=O)C=C1CC[C@@H]1[C@@H]2[C@@H](O)C[C@@]2(C)[C@H]1CC[C@]2(O)C(=O)CO [Hydrocortisone, hydrocortisone]
Ear thickness (mm) [8]: 0.29 mm | ear thickness (mm) ([9]; Day 15, Controls 0.26): 0.18 mm | ear thickness (mm) ([9]; Day 17, Controls 0.39): 0.27 mm | ear thickness (mm) ([9]; Day 22, Controls 0.34): 0.15 mm | Ear thickness (mm) [10]: 0.30 mm
